Measurements reported in patent US11351163B2, “Compositions and methods of treating cancer” (BRISTOL-MYERS SQUIBB COMPANY, priority 2017, dated 2022).

What was measured:
[1] = Clinical trial of Example 2: safety and tolerability (DLTs, TRAEs), dose escalation and expansion; type: in vivo
Excerpt: Purpose: The purpose of the study is to, among other things, determine safety and effectiveness of a compound of Formula I (or salt thereof) when combined with nivolumab and in combination with both nivolumab and ipilimumab in patients with cancers that are advanced or have spread. Pharmacokinetics and pharmacodynamics (including immunomodulatory assays) of a compound of Formula I when combined with nivolumab and in combination with nivolumab and ipilimumab in this patient population will also be assessed.
Primary Outcome Measures: • Safety and tolerability of a compound of Formula I as measured by a composite of the incidence of adverse events (AEs), serious adverse events (SAEs), AEs leading to discontinuation, deaths, and clinical laboratory test abnormalities. The time frame is 100 days after the last dose of study therapy. • Safety of a compound of Formula I plus nivolumab as measured by a composite of the incidence of adverse events (AEs), serious adverse events (SAEs), AEs leading to discontinuation, deaths, and clinical laboratory test abnormalities. The time frame is 100 days after the last dose of study therapy. • Safety of a compound of Formula I plus both nivolumab and ipilimumab as measured by incidence of adverse events (AEs), serious adverse events (SAEs), AEs leading to discontinuation, deaths, and clinical laboratory test abnormalities. The time frame is 100 days after the last dose of study therapy. • Anti-tumor activity of a compound of Formula I administered in combination with nivolumab as measured by the best overall response (BOR) as measured by CT scan. The time frame is approximately 3 years. • Anti-tumor activity of a compound of Formula I administered in combination with nivolumab as measured by the duration of response (DOR) as measured by CT scan. The time frame is approximately 3 years. • Anti-tumor activity of a compound of Formula I administered in combination with nivolumab as measured by progression-free survival rates (PFSRs) as measured by CT scan. The time frame is approximately 3 years. • Anti-tumor activity of a compound of Formula I administered in combination with both nivolumab and ipilimumab as measured by the best overall response (BOR) as measured by CT scan. The time frame is approximately 3 years. • Anti-tumor activity of a compound of Formula I administered in combination with both nivolumab and ipilimumab as measured by the duration of response (DOR) as measured by CT scan. The time frame is approximately 3 years. • Anti-tumor activity of a compound of Formula I administered in combination with both nivolumab and ipilimumab as measured by progression-free survival rates (PFSRs) as measured by CT scan. The time frame is approximately 3 years.
1. Combination Therapy (Dose Escalation). Participants with advanced cancers received a compound of Formula I orally (PO), daily (QD) at a dose of 25 mg, 50 mg, 100 mg or 200 mg for all advanced cancers over a 2 week lead-in period. Participants were then also administered nivolumab intravenously at a dose of 240 mg once every two weeks.
2. Combination Therapy (Dose Expansion). A total of 219 participants with select previously treated advanced malignancies received a compound of Formula I at a dose of 100 or 200 mg orally once daily plus nivolumab at a dose of 240 mg intravenously once every two weeks (Q2W) or at a dose of 480 mg intravenously once every four weeks (Q4W). Advanced malignancies included cervical cancer (21 patients), diffuse large B-cell lymphoma (DLBCL) (4 patients), non-small cell lung cancer (NSCLC) (7 patients), renal cell carcinoma (RCC) (0 patients); squamous cell carcinoma of the head and neck (SCCHN) (16 patients), bladder cancer (18 patients), pancreatic cancer (18 patients), melanoma (21 patients), and ASST, a mixed tumor type cohort consisting of sarcoma, endometrial and breast cancer (19 patients). […]

[2] = system: kynurenine; experiment: Kynurenine in paired tumor samples and serum of patients (FIG. 1A, 1B); type: in vivo, human
Description: FIG. 1A illustrates intratumoral kynurenine concentrations at 100 mg, 200 mg or 400 mg of the compound of Formula (I).
FIG. 1B illustrates percent serum kynurenine reduction at 20 mg, 50 mg, 100 mg, 200 mg or 400 mg of the compound of Formula (I).
Dark bars represent a pretreatment kynurenine condition and light bars represent an on-treatment kynurenine (C1D15) condition. Asterisks (*) denotes samples below the lower limit of quantitation.

[3] = Clinical trial of Example 10: safety (TRAEs) and end of treatment disposition; type: in vivo
Excerpt: Primary Outcome Measures: • Safety and tolerability of a compound of Formula I as measured by a composite of the incidence of adverse events (AEs), serious adverse events (SAEs), AEs leading to discontinuation, deaths, and clinical laboratory test abnormalities. The time frame is 100 days after the last dose of study therapy. • Safety of a compound of Formula I plus nivolumab as measured by a composite of the incidence of adverse events (AEs), serious adverse events (SAEs), AEs leading to discontinuation, deaths, and clinical laboratory test abnormalities. […] The time frame is approximately 3 years. • Anti-tumor activity of a compound of Formula I administered in combination with nivolumab as measured by the duration of response (DOR) as measured by CT scan. The time frame is approximately 3 years. • Anti-tumor activity of a compound of Formula I administered in combination with nivolumab as measured by progression-free survival rates (PFSRs) as measured by CT scan. The time frame is approximately 3 years.
1. Combination Therapy (Dose Escalation).
2. Combination Therapy (Dose Expansion). […] Three patients received the compound of Formula I alone. IDO1 inhibitor therapy is not permitted. Prior exposure to immune checkpoint inhibitors or therapy targeting T-cell costimulation requires a washout period of >4 weeks.

[4] = patients with advanced bladder cancer

C[C@@H](C(=O)Nc1ccc(Cl)cc1)[C@H]1CC[C@@H](c2ccnc3ccc(F)cc32)CC1 [compound of Formula I, (R)-N-(4-chlorophenyl)-2-(cis-4-(6-fluoroquinolin-4-yl)cyclohexyl)propanamide]
# of DLTs/# DLT evaluable ([1]; 25 mg, dose escalation): 0/7
# of DLTs/# DLT evaluable ([1]; 50 mg, dose escalation): 0/8
# of DLTs/# DLT evaluable ([1]; 100 mg, dose escalation): 1/9
# of DLTs/# DLT evaluable ([1]; 200 mg, dose escalation): 3/12
# of DLTs/# DLT evaluable ([1]; 400 mg, dose escalation): 2/4
DLTs ([1]; 400 mg, dose escalation): grade 3 AST/ALT; grade 2 anemia, fatigue
Maximum tolerated dose ([1]; during escalation): 200 mg
reduction in serum kynurenine levels ([2]; 100 mg once daily, FIG. 1B): ~60%
intratumoral kynurenine ([2]; 39 paired pre- vs on-treatment (C1D15) tumor samples across various tumor types, FIG. 1A): reduced across all doses
tolerability of 100 mg ([3]; 100 mg vs the 200-mg dose, with nivolumab): improved tolerability vs the 200-mg dose
tolerability [3, 4]: well tolerated
treatment-related deaths [3, 4]: No treatment-related deaths occurred
